For twelve compounds, MLD, Activity and mortality results are on record in ChEMBL document CHEMBL3046188, “Prodrug-oriented molecular design of neonicotinoids: preparation of imidacloprid-related 5,5-dimethoxy-1,3-diazacyclohexane derivatives and their insecticidal activity” (2005).

Common to all, as to type: functional
Test [1] concerns Periplaneta americana. Nature of the test: Insecticidal activity against Periplaneta americana (American cockroach) administered through injection into abdomen measured 24 hr post compound injection.
Test [2] deals with Periplaneta americana. The test is described as follows: Neuroblocking potency in Periplaneta americana (American cockroach) abdominal fifth and sixth ganglia assessed as neuroblocking concentration.
Test [3] deals with Myzus persicae. The test is described as follows: Insecticidal activity against Myzus persicae (green peach aphid) reared on compound pre-treated […] plants assessed as insect mortality rate at 100 ppm measured 7 days post compound treatment.
The subject of test [4] is Periplaneta americana. Nature of the test: Insecticidal activity against Periplaneta americana (American cockroach) administered through injection into abdomen co-injceted with 50 ug piperonyl butoxide and 50 ug NIA 16388 measured 24 hr post compound injection.
In test [5] the test system is Myzus persicae. The test is described as follows: Insecticidal activity against Myzus persicae (green peach aphid) reared on compound pre-treated […] plants assessed as insect mortality rate at 20 ppm measured 7 days post compound treatment.
Test [6] relates to Myzus persicae. The test is described as follows: Insecticidal activity against Myzus persicae (green peach aphid) reared on compound pre-treated […] plants assessed as insect mortality rate at 0.8 ppm measured 7 days post compound treatment.
The test system of test [7] is Myzus persicae. The test is described as follows: Insecticidal activity against Myzus persicae (green peach aphid) reared on compound pre-treated […] plants assessed as insect mortality rate at 0.16 ppm measured 7 days post compound treatment.
Test [8] has as its system Myzus persicae. The test is described as follows: Insecticidal activity against Myzus persicae (green peach aphid) reared on compound pre-treated […] plants assessed as insect mortality rate at 4 ppm measured 7 days post compound treatment.

Broadly, the mortality is the percentage killed.

Some results are limits rather than exact numbers.

As for `N/C(=N\[N+](=O)[O-])NCc1ccc(Cl)nc1`, the MLD in the test with Periplaneta americana [1] and with Periplaneta americana [4] was above 0.4 µmol each time. Also, the Activity in the test on Periplaneta americana [2] was above 0.65 mM. Moreover, the mortality at 100 ppm in the test with Myzus persicae [3] is 60%.
For the compound `COC1(OC)CN(C)/C(=N\[N+](=O)[O-])N(Cc2cnc(Cl)s2)C1`, the mortality at 20 ppm in the test on Myzus persicae [5] came out at 100%. Further, the mortality at 0.8 ppm in the test on Myzus persicae [6] was determined as 60%. In the test with Myzus persicae [7], the mortality at 0.16 ppm was 40%. For the same compound, the MLD in the test on Periplaneta americana [1] is 0.36 µmol; in the test on Periplaneta americana [4], above 0.36 µmol. Also, the Activity in the test with Periplaneta americana [2] is given as above 0.54 mM. In addition, in the test with Myzus persicae [8], the mortality at 4 ppm is 100%.
For `CC1(C)CN/C(=N\[N+](=O)[O-])N(Cc2ccc(Cl)nc2)C1`, in the test on Myzus persicae [5], the mortality at 20 ppm came out at 60%. Moreover, the mortality at 4 ppm in the test with Myzus persicae [8] came to 0%.
On to `COC1(OC)CN/C(=N\[N+](=O)[O-])N(Cc2ccc(Cl)nc2)C1`, for which the mortality at 20 ppm in the test on Myzus persicae [5] is 100%. Also, the mortality at 0.8 ppm in the test with Myzus persicae [6] was 90%. In addition, the mortality at 0.16 ppm in the test with Myzus persicae [7] turned out to be 60%. Also, the figures for the MLD in the test with Periplaneta americana [1] and with Periplaneta americana [4] were 0.19 µmol and above 0.38 µmol, respectively. Moreover, in the test with Periplaneta americana [2], the Activity was 0.56 mM. Also, the mortality at 4 ppm in the test on Myzus persicae [8] was determined as 100%.
Regarding `COC1(OC)CN/C(=C\[N+](=O)[O-])N(Cc2ccc(Cl)nc2)C1`, in the test with Myzus persicae [5], the mortality at 20 ppm stood at 90%. The mortality at 0.8 ppm with Myzus persicae [6] turned out to be 0%. For the same compound, the MLD in the test on Periplaneta americana [1] is 0.35 µmol; in the test on Periplaneta americana [4], above 0.44 µmol. The Activity with Periplaneta americana [2] was 1 mM. The mortality at 4 ppm with Myzus persicae [8] was found to be 60%.
Regarding `O=[N+]([O-])/N=C1\NCCCN1Cc1ccc(Cl)nc1`, the mortality at 20 ppm in the test with Myzus persicae [5] stood at 100%. Moreover, the mortality at 0.8 ppm in the test with Myzus persicae [6] was 100%. Moreover, the mortality at 0.16 ppm in the test with Myzus persicae [7] worked out at 90%. Further, the MLD amounted to 9.6e-05 µmol in the test with Periplaneta americana [1] and 0.015 µmol in the test on Periplaneta americana [4]. Also, in the test with Periplaneta americana [2], the Activity worked out at 0.0045 mM. Moreover, the mortality at 4 ppm with Myzus persicae [8] was determined as 100%.
As to `COC1(OC)CN/C(=N\[N+](=O)[O-])N(Cc2cnc(Cl)s2)C1`, the mortality at 20 ppm with Myzus persicae [5] stood at 100%. Further, the mortality at 0.8 ppm with Myzus persicae [6] came out at 60%. Moreover, in the test on Myzus persicae [7], the mortality at 0.16 ppm stood at 50%. The MLD was 0.24 µmol in the test on Periplaneta americana [1] and above 0.34 µmol with Periplaneta americana [4]. In addition, the Activity in the test with Periplaneta americana [2] is recorded as above 0.56 mM. In addition, the mortality at 4 ppm with Myzus persicae [8] came out at 100%.
On to `COC1CN/C(=N\[N+](=O)[O-])N(Cc2ccc(Cl)nc2)C1` (stereo not drawn), for which the mortality at 20 ppm with Myzus persicae [5] stood at 40%. Moreover, in the test on Myzus persicae [8], the mortality at 4 ppm is 0%.
For `C/N=C(\NCc1ccc(Cl)nc1)N[N+](=O)[O-]`, in the test on Myzus persicae [5], the mortality at 20 ppm stood at 100%. Further, the mortality at 0.8 ppm in the test on Myzus persicae [6] was 100%. Also, in the test with Myzus persicae [7], the mortality at 0.16 ppm was 100%. Besides, the MLD in the test with Periplaneta americana [1] and with Periplaneta americana [4] was 0.0051 µmol throughout. Further, in the test with Periplaneta americana [2], the Activity is given as 0.0085 mM. Further, the mortality at 4 ppm in the test with Myzus persicae [8] was determined as 100%.
On to `COC1(OC)CN(C)/C(=N\[N+](=O)[O-])N(Cc2ccc(Cl)nc2)C1`, for which the mortality at 20 ppm in the test with Myzus persicae [5] stood at 90%. The mortality at 0.8 ppm in the test with Myzus persicae [6] was 60%. In the test with Myzus persicae [7], the mortality at 0.16 ppm is 30%. The MLD is 0.36 µmol with Periplaneta americana [1] and above 0.36 µmol in the test with Periplaneta americana [4]. Moreover, the Activity with Periplaneta americana [2] was above 0.56 mM. The mortality at 4 ppm in the test with Myzus persicae [8] worked out at 90%.
As for `COC1(OC)CN/C(=C\[N+](=O)[O-])N(CC2CCOC2)C1` (stereo not drawn), the mortality at 20 ppm in the test with Myzus persicae [5] came to 60%. Besides, the MLD in the test with Periplaneta americana [1] and in the test with Periplaneta americana [4] was above 0.36 µmol each time. Also, the Activity in the test with Periplaneta americana [2] was above 0.54 mM. The mortality at 4 ppm in the test with Myzus persicae [8] amounted to 0%.
With `COC1(OC)CN/C(=N\C#N)N(Cc2ccc(Cl)nc2)C1`, the mortality at 20 ppm with Myzus persicae [5] is 100%. Moreover, in the test on Myzus persicae [6], the mortality at 0.8 ppm was 60%. Moreover, the mortality at 0.16 ppm in the test with Myzus persicae [7] stood at 20%. Also, the MLD in the test on Periplaneta americana [1] and in the test on Periplaneta americana [4] was above 0.4 µmol in each case. Further, in the test with Periplaneta americana [2], the Activity is recorded as 0.62 mM. Further, the mortality at 4 ppm in the test with Myzus persicae [8] stood at 60%.
